# Assay results published in patent US10342749B2, “Antiperspirant compositions comprising alums” (Conopco, Inc., priority 2014, dated 2019).
# Experiments:
# human skin = assay: Mitigation of irritation by inorganic base (inventors' research); type: in vivo; settings: as third salt (metal oxide)
# [1] = at 30° C.; cited from earlier work
compound,measurement,setting,value
[O]=[Zn] [zinc oxide],mitigating irritation,human skin,ineffective
same,water solubility,[1],1.6 µg/mL
